Bounds are passed on as bounds.

The target of assay [1] is T1, recombinant human ALK5 (TGF-βR1) protein (Homo sapiens, UniProt P36897).
T1 construct: purchased Life Technologies PR9075A
T1 sequence (P36897 34-503): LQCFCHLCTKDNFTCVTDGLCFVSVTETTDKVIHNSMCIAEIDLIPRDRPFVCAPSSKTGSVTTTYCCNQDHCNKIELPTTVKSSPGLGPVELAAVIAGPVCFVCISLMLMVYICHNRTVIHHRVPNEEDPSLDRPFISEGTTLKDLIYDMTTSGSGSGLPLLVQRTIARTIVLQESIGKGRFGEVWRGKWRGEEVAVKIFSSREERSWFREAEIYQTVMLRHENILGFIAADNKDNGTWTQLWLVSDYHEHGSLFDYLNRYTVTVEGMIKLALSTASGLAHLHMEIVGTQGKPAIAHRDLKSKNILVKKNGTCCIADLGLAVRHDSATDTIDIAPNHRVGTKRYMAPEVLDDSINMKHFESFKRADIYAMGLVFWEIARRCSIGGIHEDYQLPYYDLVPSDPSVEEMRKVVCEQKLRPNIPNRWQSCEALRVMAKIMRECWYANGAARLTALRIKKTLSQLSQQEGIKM
In words: Biochemical ALK5 (TGF-βR1) assay to measure pKi (LANCE Ultra ULight kinase assay). The following applies: apparent pKi, converted from pIC50 using the Cheng-Prusoff equation. The method, boiled down:
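TR-FRET kinase format: compound dose range 10 μM–25 pM equilibrated 60 min with human ALK5 and ULight-labelled topoisomerase 2α peptide in HEPES/MgCl2 buffer pH 7.5 with DTT. Reaction started with ATP (125 μM stock, 5× final), 60 min at 37° C, stopped with EDTA/Eu-anti-phospho antibody; pKi derived from pIC50 via Cheng-Prusoff.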
On the technique in general: TR-FRET usually uses a lanthanide donor and a delayed reading to cut background.

The test system of assay [2] is TGF-β-stimulated SMAD3 phosphorylation in BEAS-2B cells. Kind of assay: Cellular ALK5 potency assay, inhibition of TGF-β stimulated pSMAD3 formation in BEAS-2B cells. The following applies: Homo sapiens, inhibition of TGF-β (10 ng/mL) stimulated pSMAD3 formation, 1 hour compound incubation, read-out: BEAS2B pIC50 (converted). It is filed as cell-based. The method, boiled down:
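Phospho-SMAD3 was quantified by AlphaLISA in lysates of human lung epithelial BEAS-2B cells. Compound was added 1 h (37 °C, HEPES/BSA-supplemented HBSS) before a 30 min challenge with 10 ng/mL TGF-β. Values are pIC50 relative to stimulated cells without compound.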

Regarding `CCN1CCC(N(C)c2cnc3ccc(-c4c[nH]nc4-c4cc(Cl)c(F)cc4F)nc3c2)CC1` [Compound 6-15, 6-[3-(5-chloro-2,4-difluoro-phenyl)-1H-pyrazol-4-yl]-N-(1-ethyl-4-piperidyl)-N-methyl-1,5-naphthyridin-3-amine], the Ki in assay [1] is 0.398 to 3.16 nM. In addition, the IC50 in assay [2] was 25.1 to 158 nM.
On the same counts, the results for `CN1CCC(N(C)c2cnc3ccc(-c4c[nH]nc4-c4cc(Cl)c(F)cc4F)nc3c2)CC1` [Compound 6-16, 6-[3-(5-chloro-2,4-difluoro-phenyl)-1H-pyrazol-4-yl]-N-methyl-N-(1-methyl-4-piperidyl)-1,5-naphthyridin-3-amine] are 0.398 to 3.16 nM and 25.1 to 158 nM.
On the same counts, the results for `CN1CCN(C2CCN(c3cnc4ccc(-c5c[nH]nc5-c5cc(Cl)c(F)cc5F)nc4c3)CC2)CC1` [Compound 6-17, 2-[3-(5-chloro-2,4-difluoro-phenyl)-1H-pyrazol-4-yl]-7-[4-(4-methylpiperazin-1-yl)-1-piperidyl]-1,5-naphthyridine] are 0.0398 to 0.316 nM and 25.1 to 158 nM.
The corresponding values for `CN(C)C1CCN(c2cnc3ccc(-c4c[nH]nc4-c4cc(Cl)c(F)cc4F)nc3c2)CC1` [Compound 6-18, 1-[6-[3-(5-chloro-2,4-difluoro-phenyl)-1H-pyrazol-4-yl]-1,5-naphthyridin-3-yl]-N,N-dimethyl-piperidin-4-amine] are 0.0398 to 0.316 nM and 25.1 to 158 nM.
For `CN(C)C1CN(c2cnc3ccc(-c4c[nH]nc4-c4cc(Cl)c(F)cc4F)nc3c2)C1` [Compound 6-19, 1-[6-[3-(5-chloro-2,4-difluoro-phenyl)-1H-pyrazol-4-yl]-1,5-naphthyridin-3-yl]-N,N-dimethyl-azetidin-3-amine], the Ki in assay [1] was 0.0398 to 0.316 nM. In addition, the IC50 in assay [2] was 25.1 to 158 nM.
The corresponding values for `CN(C)C1(C)CN(c2cnc3ccc(-c4c[nH]nc4-c4cc(Cl)c(F)cc4F)nc3c2)C1` [Compound 6-20, 1-[6-[3-(5-chloro-2,4-difluoro-phenyl)-1H-pyrazol-4-yl]-1,5-naphthyridin-3-yl]-N,N,3-trimethyl-azetidin-3-amine] are 0.398 to 3.16 nM and 25.1 to 158 nM.
For the compound `CNC1CCN(c2cnc3ccc(-c4c[nH]nc4-c4cc(Cl)c(F)cc4F)nc3c2)CC1` [Compound 6-23, 1-(6-(3-(5-chloro-2,4-difluorophenyl)-1H-pyrazol-4-yl)-1,5-naphthyridin-3-yl)-N-methylpiperidin-4-amine], the Ki in assay [1] was 0.0398 to 0.316 nM. Also, in assay [2], the IC50 is 25.1 to 158 nM.
On the same counts, the results for `CN(CCN1CCNCC1)c1cnc2ccc(-c3c[nH]nc3-c3cc(Cl)c(F)cc3F)nc2c1` [Compound 6-24, 6-[3-(5-chloro-2,4-difluoro-phenyl)-1H-pyrazol-4-yl]-N-methyl-N-(2-piperazin-1-ylethyl)-1,5-naphthyridin-3-amine] are 0.398 to 3.16 nM and 25.1 to 158 nM.
On the same counts, the results for `CNC(=O)[C@@H]1CN(c2cnc3ccc(-c4c[nH]nc4-c4cc(Cl)c(F)cc4F)nc3c2)CCN1` [Compound 6-26, (2S)-4-[6-[3-(5-chloro-2,4-difluoro-phenyl)-1H-pyrazol-4-yl]-1,5-naphthyridin-3-yl]-N-methyl-piperazine-2-carboxamide] are 0.398 to 3.16 nM and 25.1 to 158 nM.
In the case of `COC(=O)[C@H]1CN(c2cnc3ccc(-c4c[nH]nc4-c4cc(Cl)c(F)cc4F)nc3c2)CCN1` [Compound 6-27, methyl (2R)-4-[6-[3-(5-chloro-2,4-difluoro-phenyl)-1H-pyrazol-4-yl]-1,5-naphthyridin-3-yl]piperazine-2-carboxylate], the Ki in assay [1] is 0.398 to 3.16 nM. In addition, in assay [2], the IC50 was 25.1 to 158 nM.
On the same counts, the results for `COC(=O)[C@@H]1CN(c2cnc3ccc(-c4c[nH]nc4-c4cc(Cl)c(F)cc4F)nc3c2)CCN1` [Compound 6-28, methyl (2S)-4-[6-[3-(5-chloro-2,4-difluoro-phenyl)-1H-pyrazol-4-yl]-1,5-naphthyridin-3-yl]piperazine-2-carboxylate] are 0.398 to 3.16 nM and 25.1 to 158 nM.
Turning to `CNCC1CN(c2cnc3ccc(-c4c[nH]nc4-c4cc(Cl)c(F)cc4F)nc3c2)C1` [Compound 6-29, 1-[1-[6-[3-(5-chloro-2,4-difluoro-phenyl)-1H-pyrazol-4-yl]-1,5-naphthyridin-3-yl]azetidin-3-yl]-N-methyl-methanamine], the Ki in assay [1] was at most 0.0316 nM. The IC50 in assay [2] is at most 20 nM.
On the same counts, the results for `NC1CN(c2cnc3ccc(-c4c[nH]nc4-c4cc(Cl)c(F)cc4F)nc3c2)C1` [Compound 6-30, 1-[6-[3-(5-chloro-2,4-difluoro-phenyl)-1H-pyrazol-4-yl]-1,5-naphthyridin-3-yl]azetidin-3-amine] are 0.0398 to 0.316 nM and 25.1 to 158 nM.
With `CNC1CN(c2cnc3ccc(-c4c[nH]nc4-c4cc(Cl)c(F)cc4F)nc3c2)C1` [Compound 6-31, 1-[6-[3-(5-chloro-2,4-difluoro-phenyl)-1H-pyrazol-4-yl]-1,5-naphthyridin-3-yl]-N-methyl-azetidin-3-amine], in assay [1], the Ki was 0.0398 to 0.316 nM. Besides, the IC50 in assay [2] is at most 20 nM.
On the same counts, the results for `CN(CC1CNC1)c1cnc2ccc(-c3c[nH]nc3-c3cc(Cl)c(F)cc3F)nc2c1` [Compound 6-32, N-(azetidin-3-ylmethyl)-6-[3-(5-chloro-2,4-difluoro-phenyl)-1H-pyrazol-4-yl]-N-methyl-1,5-naphthyridin-3-amine] are 0.0398 to 0.316 nM and 25.1 to 158 nM.
As to `Fc1cc(F)c(-c2n[nH]cc2-c2ccc3ncc(N4CC5CNC5C4)cc3n2)cc1Cl` (stereo not shown) [Compound 6-33, 2-[3-(5-chloro-2,4-difluoro-phenyl)-1H-pyrazol-4-yl]-7-(3,6-diazabicyclo[3.2.0]heptan-3-yl)-1,5-naphthyridine], the Ki in assay [1] is 0.398 to 3.16 nM. Moreover, the IC50 in assay [2] was 25.1 to 158 nM.
The corresponding values for `NC1CCN(c2cnc3ccc(-c4c[nH]nc4-c4cc(Cl)c(F)cc4F)nc3c2)C1` (stereo not shown) [Compound 6-34, 1-[6-[3-(5-chloro-2,4-difluoro-phenyl)-1H-pyrazol-4-yl]-1,5-naphthyridin-3-yl]pyrrolidin-3-amine] are at most 0.0316 nM and at most 20 nM.
On the same counts, the results for `CNC1CCN(c2cnc3ccc(-c4c[nH]nc4-c4cc(Cl)c(F)cc4F)nc3c2)C1` (stereo not shown) [Compound 6-35, 1-[6-[3-(5-chloro-2,4-difluoro-phenyl)-1H-pyrazol-4-yl]-1,5-naphthyridin-3-yl]-N-methyl-pyrrolidin-3-amine] are at most 0.0316 nM and at most 20 nM.
The corresponding values for `NCCN1CCN(c2cnc3ccc(-c4c[nH]nc4-c4cc(Cl)c(F)cc4F)nc3c2)CC1` [Compound 6-36, 2-[4-[6-[3-(5-chloro-2,4-difluoro-phenyl)-1H-pyrazol-4-yl]-1,5-naphthyridin-3-yl]piperazin-1-yl]ethanamine] are 0.0398 to 0.316 nM and 25.1 to 158 nM.
On to `CC(C)N1CC[C@@H](N(C)c2cnc3ccc(-c4c[nH]nc4-c4cc(Cl)c(F)cc4F)nc3c2)C1` [Compound 6-37, (R)-6-(3-(5-chloro-2,4-difluorophenyl)-1H-pyrazol-4-yl)-N-(1-isopropylpyrrolidin-3-yl)-N-methyl-1,5-naphthyridin-3-amine], for which, in assay [1], the Ki was 0.0398 to 0.316 nM. The IC50 in assay [2] was 25.1 to 158 nM.

Values taken from patent publication US11730720B2, “ALK5 inhibitors” (THERAVANCE BIOPHARMA R&D IP, LLC, priority 2018, dated 2023).
